Laboratory results as given in patent US20180185347A1, “TETRAHYDROCYCLOPENTA[B]INDOLE COMPOUNDS AND PHOSPHODIESTERASE INHIBITORS FOR THE TREATMENT OF THE SIGNS AND SYMPTOMS OF BHP” (Transition Therapeutics (Ireland 2) Limited, priority 2016, published 2018).
“Also recorded” adds a separate entry of the source.

Key:
Dog bioavailability = assay type: in vivo
PSA levels [1] = test: PSA in ED patients failing tadalafil (Study GPEC); assay type: in vivo, human; conditions: for PSA levels: ED patients, alone or with tadalafil, PSA about 2.0 ng/ml or more
Text: The results of this study are illustrated in FIG. 7. […] (see FIG. 8 and FIG. 9).

[2] = biological target: T1, human androgen receptor (hAR) (Homo sapiens, UniProt P10275); test: AR binding affinity (Ki)
T1 sequence (P10275 1-920): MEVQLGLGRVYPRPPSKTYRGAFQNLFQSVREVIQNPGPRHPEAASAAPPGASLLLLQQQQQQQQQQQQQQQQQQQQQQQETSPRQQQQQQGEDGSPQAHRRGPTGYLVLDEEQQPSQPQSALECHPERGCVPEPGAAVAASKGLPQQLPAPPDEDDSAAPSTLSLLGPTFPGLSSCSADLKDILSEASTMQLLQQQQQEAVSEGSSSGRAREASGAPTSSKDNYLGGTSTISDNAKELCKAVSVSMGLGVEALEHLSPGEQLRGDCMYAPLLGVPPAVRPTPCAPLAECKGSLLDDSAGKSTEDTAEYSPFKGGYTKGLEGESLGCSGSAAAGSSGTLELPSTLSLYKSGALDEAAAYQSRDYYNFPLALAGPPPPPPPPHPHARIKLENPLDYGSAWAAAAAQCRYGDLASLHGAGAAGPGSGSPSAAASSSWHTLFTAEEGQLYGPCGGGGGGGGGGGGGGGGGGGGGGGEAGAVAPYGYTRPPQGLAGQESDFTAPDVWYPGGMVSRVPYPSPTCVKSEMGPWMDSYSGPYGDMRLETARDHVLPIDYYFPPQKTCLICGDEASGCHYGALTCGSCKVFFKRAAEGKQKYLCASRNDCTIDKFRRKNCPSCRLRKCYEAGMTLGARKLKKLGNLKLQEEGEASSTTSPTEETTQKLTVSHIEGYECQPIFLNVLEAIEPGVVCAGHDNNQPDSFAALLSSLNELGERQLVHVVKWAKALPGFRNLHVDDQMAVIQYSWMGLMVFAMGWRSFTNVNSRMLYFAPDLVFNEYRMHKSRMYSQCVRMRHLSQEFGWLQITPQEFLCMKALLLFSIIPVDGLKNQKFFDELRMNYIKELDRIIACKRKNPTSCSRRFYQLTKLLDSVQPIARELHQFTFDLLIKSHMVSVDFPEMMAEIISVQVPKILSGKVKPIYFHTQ

orchidectomized rats [3] = test: Testosterone induced prostate / seminal vesicle growth in delayed ORX rat model; assay type: in vivo
Text: (§1) Orchidectomized (ORX) and sham-operated Wistar male rats were used (orchidectomized at 8 weeks of age and allowed to waste for 4 weeks). […] Rats were randomized and placed into treatment groups (n=6) based on body weight. Route of administration for all groups except testosterone enanthate (TE was given sub-cutaneously) was oral. At the end of 2 weeks of daily rats were euthanized, weighed & tissue harvested. Levator ani, prostates, and seminal vesicles were collected from each animal. Results are plotted as means±SE.

orchidectomized rats [4] = test: Levator ani / bulbocavernous muscle weight in delayed ORX rat model; assay type: in vivo
Text: Results are plotted as means±SE.
Following the androgen deficiency in the ORX model, the Levator ani- and bulbocavernous muscle weights decreased in size.

[5] = QT / ECG assessment in clinical studies; assay type: in vivo, human; conditions: Study GPEC
Rat bioavailability = assay type: in vivo
[6] = Clinical safety and laboratory parameters; conditions: for hemoglobin and hematocrit: any dose tested, 12 weeks
rats = test: Rat toxicology program: prostate weight and atrophy; assay type: in vivo; set-up: key: “”: no effect observed
[7] = biological target: T2, serum hormone binding globulin (Homo sapiens, UniProt P04278); test: Affinity to serum hormone binding globulin; conditions: at 10 μM
T2 sequence (P04278 30-402): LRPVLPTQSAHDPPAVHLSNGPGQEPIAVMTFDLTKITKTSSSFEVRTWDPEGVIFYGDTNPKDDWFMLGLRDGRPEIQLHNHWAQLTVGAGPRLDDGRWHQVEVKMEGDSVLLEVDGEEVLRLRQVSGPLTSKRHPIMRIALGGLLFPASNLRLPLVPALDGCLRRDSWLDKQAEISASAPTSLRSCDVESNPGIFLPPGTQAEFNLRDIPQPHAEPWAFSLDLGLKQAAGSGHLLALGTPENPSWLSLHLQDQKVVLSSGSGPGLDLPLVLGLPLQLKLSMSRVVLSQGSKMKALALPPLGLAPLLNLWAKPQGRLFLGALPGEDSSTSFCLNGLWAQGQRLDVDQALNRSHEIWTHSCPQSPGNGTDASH

PSA levels [8] = test: PSA in healthy subjects (Study GPBC, Phase 1); assay type: in vivo, human
Text: The results of this study are illustrated in FIG. 6.

[9] = Clinical body composition and muscle power; assay type: in vivo, human
Text: The Phase 2 Study for ED also included exploratory measures for lower extremity muscle strength and power, LBM and fat mass. […] The results are illustrated in FIGS. 12, 13, and 14.

orchidectomized rats [10] = test: Prostate and seminal vesicle weight in delayed ORX rat model (SV/Prostate risk); conditions: for prostate or seminal vesical weights: delayed ORX rats, 2 or 8 weeks, doses up to 20-30 mg/kg
Text: as §1

[11] = clinical studies in patients with androgen deficiency
[12] = Study GPEC, 12 weeks, 5 mg + 5 mg tadalafil compared with 10 mg tadalafil

In the case of `CC(C)OC(=O)N[C@H]1Cc2c(n(Cc3ccccn3)c3ccc(C#N)cc23)C1` [compound of Formula II, (S)-(7-cyano-4-pyridin-2-ylmethyl-1,2,3,4-tetrahydro-cyclopenta[b]indol-2-yl)-carbamic acid isopropyl ester], the bioavailability (Dog bioavailability; in vivo, read-out: Dog F %) is reported as 58%, the “Dog F %” value (Dog bioavailability; listed as TT701) is reported as 58% and the PSA levels (PSA levels [1]; listed as OPK88004) is reported as “significant reduction in PSA levels”. For the same compound, the PSA levels (PSA levels [1]; listed as OPK-88004) was “decrease in PSA levels”, the PSA (PSA levels [1]; Study GPEC, 1 mg and 5 mg for 12 weeks) was “not associated with increases in PSA” and the “binding affinity for hAR compared to other nuclear hormone receptors” value [2] was > 500 fold. The “prostate weights, Abs(Dif)-LSD vs ORX + TE control” value (orchidectomized rats [3]; 1 mg/kg/d + 3 mg/kg/d) was −0.11, the “seminal vesicle wet weights, Abs(Dif)-LSD vs ORX + TE control” value (orchidectomized rats [3]; 1 mg/kg/d + 3 mg/kg/d) was −0.34 and the “prostate weights, Abs(Dif)-LSD vs ORX + TE control” value (orchidectomized rats [3]; 1 mg/kg/d + 10 mg/kg/d) was 0.036. The “seminal vesicle wet weights, Abs(Dif)-LSD vs ORX + TE control” value (orchidectomized rats [3]; 1 mg/kg/d + 10 mg/kg/d) was 0.078, the “prostate weights, Abs(Dif)-LSD vs ORX + TE control” value (orchidectomized rats [3]; 1 mg/kg/d + 30 mg/kg/d) was 0.025 and the “prostate and seminal vesical weights normalized to body weight compared to TE alone” value (orchidectomized rats [3]; ORX rat, TE 1 mg/kg/d + 3, 10 and 30 mg/kg/d, 2 weeks) was “decreasing prostate weight and seminal vesical weights; also recorded: reduced testosterone induced effects on prostate size”. For the same compound, the ED50 (orchidectomized rats [4]; Rattus norvegicus, read-out: ED50 for the levator ani muscle) was 1 to 3 mg/kg, the “Levator ani- and bulbocavernous muscle weights” value (orchidectomized rats [4]; delayed ORX rat, 8 weeks, 1 to 3 mg/kg/day) was “increased significantly” and the ECG data [5] was “did not show evidence of clinically meaningful changes”. For the same compound, the bioavailability (Rat bioavailability; in vivo, read-out: Rat F %) was 63%, the “Rat F %” value (Rat bioavailability; listed as TT701) was 63% and the “HDL cholesterol levels and apolipoprotein A1” value ([6]; Study GPEC) was “decreased”. For the same compound, the testosterone ([6]; Study GPEC, 12-week, elderly men, with reduction of SHBG) was “clinically meaningful decrease”, the “systolic blood pressure, diastolic blood pressure, or heart rate” value ([6]; clinical studies) was “did not yield any significant changes” and the “decrease in the levels of endogenous testosterone” value [6, 11] was 20-30%. The “total bilirubin, GGT, or alkaline phosphatase” value ([6]; clinical studies, any dose) was “no significant increases”, the hemoglobin and hematocrit ([6]; clinical) was “no increases” and the hemoglobin and hematocrit ([6]; clinical, listed as TT701) was “no change in Hematocrit”. The immunotoxicity safety signal ([6]; clinical, to date) was “no immunotoxicity safety signal has been observed”, the “dose demonstrated safe in clinical studies” value ([6]; human, in vivo) was “up to 1000 mgs/day” and the “decrease in HDL” value ([6]; patients, 5 mg for 12 weeks) was 20%. The “liver transaminases (AST or ALT)” value ([6]; phase 2 study, three subjects, two ≥2×ULN, one ≥3×ULN) was “transient abnormal AST or ALT”, the “Prostate weight (mean % decrease)” value (rats; 1+ months, 15 mg/kg/day) was ““”” and the “Prostate weight (mean % decrease)” value (rats; 1+ months, 150 mg/kg/day) was ““””. The “Prostate weight (mean % decrease)” value (rats; 1+ months, 1500 mg/kg/day) was ““””, the “Prostate weight (mean % decrease)” value (rats; 6+ months, 15 mg/kg/day) was ““”” and the “Prostate weight (mean % decrease)” value (rats; 6+ months, 150 mg/kg/day) was “^↓30%”. For the same compound, the “Prostate weight (mean % decrease)” value (rats; 6+ months, 1500 mg/kg/day) was “^↓34%”, the “Prostate weight (mean % decrease)” value (rats; Male Fertility (3 months), 3 mg/kg/day) was ““”” and the “Prostate weight (mean % decrease)” value (rats; Male Fertility (3 months), 30 mg/kg/day) was “^↓23%”. For the same compound, the “Prostate weight (mean % decrease)” value (rats; Male Fertility (3 months), 1000 mg/kg/day) was “^↓39%”, the “affinity to serum hormone binding globulin” value [7] was “none detected” and the “PSA test, effect on the prostate” value (PSA levels [8]; Study GPBC, healthy subjects, 1 mg to 75 mg daily for 28 days) was “neutral to negative effect (decreasing PSA)”. For the same compound, the PSA (PSA levels [8]; clinical studies, any dose level (up to 75 mg doses)) was “No increases in PSA were observed”, the “LBM and calf area (by CT)” value ([9]; Study GPBC, healthy subjects, 28 days) was “clinically and statistically significant increases” and the “fat body mass and LBM” value [9, 12] was “reduction of fat body mass and an increase (improvement) of LBM”. For the same compound, the “lower extremity muscle power (stair climb)” value [9, 12] was “increased (improved)”, the lean body mass [9, 11] was “clinically and statistically significant increases” and the “changes in the prostate of orchidectomized rats” value (orchidectomized rats [10]; 30 mg/kg, the highest dose examined) was “did not induce changes”. For the same compound, the “prostate or seminal vesical weights” value (orchidectomized rats [10]) was “had no effect; also recorded: minimal accrual SV/Prostate risk” and the “prostate or seminal vesical weights” value (orchidectomized rats [10]; listed as TT701) was “minimal accrual SV/Prostate risk”.
